Test results from patent US9206412B2, “Thioxothiazolidine inhibitors” (Colorado State University Research Foundation, priority 2012, dated 2015).
“And” between values parts separate entries of the source, which are not always exact repeats. Equal values may be shown once. Read-outs that look alike come from different tables or passages of the source.

Columns and labels:
[1] = tested on: dengue type 2 virus subgenomic replicon (BHK-pD2hRucPac); experiment: Antiviral (replicon) assay, Renilla luciferase; format: cell-based; conditions: Table 2-1; read-out: Replicon Assay_EC50_M
[2] = biological target: yellow fever virus capping enzyme (Yellow fever virus, UniProt P03314); experiment: biochemical; format: binding, yellow fever virus (strain 17D); conditions: read-out: FP_YF_KI_AVG_YF_M
BHK-pD2hRucPac cells = experiment: Cell viability (CellTiter-Glo) in replicon assay; conditions: read-out: Replicon Assay_CC50_M; Table 2-1
[3] = biological target: T1, dengue virus capping enzyme (Dengue virus type 2, UniProt P29990); experiment: biochemical; format: binding, dengue virus type 2 (strain 16681)
T1 sequence (P29990 2492-2758): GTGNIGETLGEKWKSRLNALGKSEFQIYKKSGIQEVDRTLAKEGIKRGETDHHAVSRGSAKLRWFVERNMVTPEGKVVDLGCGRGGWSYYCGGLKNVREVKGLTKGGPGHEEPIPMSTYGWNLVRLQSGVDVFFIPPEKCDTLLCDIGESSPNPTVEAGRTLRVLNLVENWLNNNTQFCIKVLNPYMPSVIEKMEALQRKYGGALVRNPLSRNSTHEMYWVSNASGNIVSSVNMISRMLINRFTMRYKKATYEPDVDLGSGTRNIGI

Sequence of yellow fever virus capping enzyme (P03314 2507-2774 limits assumed): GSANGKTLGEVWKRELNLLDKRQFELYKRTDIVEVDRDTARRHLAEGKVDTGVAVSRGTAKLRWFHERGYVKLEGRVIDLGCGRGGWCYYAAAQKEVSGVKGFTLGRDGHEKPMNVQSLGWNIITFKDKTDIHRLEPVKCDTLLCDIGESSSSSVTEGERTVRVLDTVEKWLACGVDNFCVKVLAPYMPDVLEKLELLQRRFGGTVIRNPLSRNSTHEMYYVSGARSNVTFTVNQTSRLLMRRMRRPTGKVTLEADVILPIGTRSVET

SMILES | EC50 [1] | Ki [2] | CC50 (BHK-pD2hRucPac cells) | Ki ([3]; read-out: FP_DEN_Ki_AVG_DEN_M) | Ki ([3]; Ki (GTP displacement)) | Ki ([3]; read-out: Ki (GTP displacement))
CC(C)C(C(=O)O)N1C(=O)/C(=C/c2ccccc2Cl)SC1=S (centres unmarked) [BG134] | 61 µM | 15 µM | 66 µM | 15 µM | – | –
CCN(CC)c1ccc(N2C(=O)/C(=C/c3ccc(C(=O)O)cc3)SC2=S)cc1 [BG125] | – | 3 µM | 15 µM | 2 µM | – | –
O=C(CN1C(=O)C(=Cc2ccccc2Cl)SC1=S)Nc1ccc(C(=O)O)cc1 [BG119] | 42 µM | 5 µM | 58 µM | 4 µM | – | –
CCOc1ccc(N2C(=O)C(=Cc3ccccc3C(=O)O)SC2=S)cc1 [BG126] | 52 µM | 19 µM | 51 µM | 17 µM | – | –
O=C(O)CN1C(=O)C(=Cc2cc(Br)cc(Cl)c2O)SC1=S [BG222] | – | ≥ 100 µM | – | ≥ 100 µM | – | –
COc1ccccc1/C=C1\SC(=O)N(CC(=O)O)C1=O [BG215] | – | – | 100 µM | 866 µM | – | –
O=C(O)CN1C(=O)SC(=Cc2ccc(Cl)cc2)C1=O [BG226] | – | ≥ 100 µM | – | – | – | –
O=C(CCN1C(=O)C(=Cc2ccc(Cl)cc2)SC1=S)Nc1ccc(C(=O)O)cc1 [BG122] | 41 µM | 5 µM | 58 µM | 3 µM | – | –
C=CCOc1ccc(Cl)cc1/C=C1\SC(=S)NC1=O [BG114] | 23 µM | 6 µM | 27 µM | 2 µM | – | –
O=C(O)CN1C(=O)/C(=C/c2ccc(Cl)c(Cl)c2)SC1=S [BG228] | – | 16 µM | – | 11 µM | – | –
O=C(CN1C(=O)/C(=C/c2ccccc2F)SC1=S)Nc1ccccc1C(=O)O [BG132] | 114 µM | 3 µM | 50 µM | 3 µM | – | –
O=C(O)CN1C(=O)C(=Cc2ccc(Cl)cc2Cl)SC1=S [BG229] | – | 25 µM | – | 24 µM | – | –
O=C(O)CN1C(=O)/C(=C/c2ccc(Cl)c(Cl)c2)SC1=S [BG-318] | – | – | – | – | 11 µM and 11.3 µM | –
O=C(CCN1C(=O)/C(=C/c2cccc(Br)c2)SC1=S)Nc1ccccc1C(=O)O [BG291] | 75 µM | – | 68 µM | – | – | –
COc1c(I)cc(I)cc1/C=C1\SC(=S)N(CC(=O)O)C1=O [BG308] | 97 µM | 4 µM | 276 µM | 2 µM | – | –
Cc1cc(C)cc(-n2c(C)cc(/C=C3\SC(=O)NC3=O)c2C)c1 [BG172] | 20 µM | 14 µM | 26 µM | 11 µM | – | –
CCc1ccc(C=C2SC(=S)N(CCC(=O)Nc3ccccc3C(=O)O)C2=O)cc1 [BG274] | 63 µM | – | 60 µM | – | – | –
NC(=O)c1c(NC(=O)CN2C(=O)C(=Cc3ccc(Cl)cc3Cl)SC2=S)sc2c1CCCC2 [BG265] | – | – | – | 46 µM | – | –
O=C(O)CCN1C(=O)C(=Cc2ccc(-c3ccccc3)o2)SC1=S [BG292] | – | – | – | ≥ 100 µM | – | –

SMILES | EC50 [1] | Ki [2] | CC50 (BHK-pD2hRucPac cells) | Ki ([3]; read-out: FP_DEN_Ki_AVG_DEN_M) | Ki ([3]; Ki (GTP displacement)) | Ki ([3]; read-out: Ki (GTP displacement))
O=C(O)CN1C(=O)/C(=C/c2ccc(F)c(Br)c2)SC1=S [BG224] | – | 27 µM | – | 27 µM | – | –
O=C(O)CCN1C(=O)C(=Cc2ccc(Cl)c(Cl)c2)SC1=S [BG-328] | – | 12 µM | – | 14 µM | – | 13.6 µM
O=C(O)CN1C(=O)/C(=C/c2cccc(Cl)c2Cl)SC1=S [BG-317] | – | – | – | – | 27 µM | –
CC(C)c1ccc(C=C2SC(=S)N(CCC(=O)O)C2=O)cc1 [BG183] | – | 13 µM | – | 12 µM | – | –
O=C(CN1C(=O)/C(=C/c2ccccc2Cl)SC1=S)Nc1ccccc1C(=O)O [BG100] | 37 µM | 5 µM | 49 µM | 3 µM | – | –
CCc1ccc(C=C2SC(=O)NC2=O)cc1 [BG144] | – | 38 µM | – | 20 µM | – | –
O=C(O)CCN1C(=O)C(=Cc2ccc(F)cc2)SC1=S [BG-321] | – | ≥ 100 µM | – | ≥ 100 µM | – | –
COc1ccc(OC)c(/C=C2\SC(=S)N(CC(=O)O)C2=O)c1 [BG-309] | – | ≥ 100 µM | 100 µM | ≥ 100 µM | – | –
O=C1NC(=O)C(=Cc2cc3c(cc2[N+](=O)[O-])OCO3)S1 [BG145] | – | 9 µM | – | 8 µM | – | –
O=C(CCN1C(=O)/C(=C/c2ccccc2Cl)SC1=S)Nc1ccccc1C(=O)O [BG289] | 92 µM | – | 79 µM | – | – | –
O=C(O)CN1C(=O)C(=CC=Cc2ccccc2)SC1=S [BG326] | – | ≥ 100 µM | – | 77 µM | – | –
O=C(O)CCN1C(=O)C(=Cc2ccccc2)SC1=S [BG-327] | – | ≥ 100 µM | – | ≥ 100 µM | – | –
O=C(O)CCN1C(=O)/C(=C/c2ccc(-c3ccc(Cl)cc3Cl)o2)SC1=S [BG177] | 30 µM and 26 µM | 1 µM | 30 µM and 31 µM | – | – | –
CC(C)c1ccc(/C=C2\SC(=S)N(CCC(=O)O)C2=O)cc1 [BG-322] | – | – | – | – | 12 µM | –
COc1ccccc1C=C1SC(=S)N(CCC(=O)O)C1=O [BG-310] | – | 44 µM | 100 µM | – | – | –
O=C(O)CCN1C(=O)/C(=C/c2ccc(-c3ccccc3Cl)o2)SC1=S [BG290] | – | – | – | ≥ 100 µM | – | –
O=C(O)CN1C(=O)/C(=C/c2ccc(Cl)cc2Cl)SC1=S [BG-319] | – | – | – | – | 24 µM | –
O=C(O)CCCN1C(=O)/C(=C/c2ccc(Cl)cc2Cl)SC1=S [BG-331] | – | 25 µM | – | 15 µM | – | –
O=C(O)CN1C(=O)/C(=C/c2ccccc2)SC1=S [BG-325] | – | ≥ 100 µM | – | ≥ 100 µM | – | –

SMILES | EC50 [1] | Ki [2] | CC50 (BHK-pD2hRucPac cells) | Ki ([3]; read-out: FP_DEN_Ki_AVG_DEN_M) | Ki ([3]; Ki (GTP displacement)) | Ki ([3]; read-out: Ki (GTP displacement))
COC(=O)CCN1C(=O)C(=Cc2ccc(Cl)cc2Cl)SC1=S [BG-332] | – | ≥ 100 µM | – | ≥ 100 µM | – | –
O=C(O)CN1C(=O)C(=Cc2cccc(Cl)c2Cl)SC1=S [BG227] | – | 34 µM | – | 27 µM | – | –
O=C(O)CN1C(=O)C(=Cc2cc(Br)ccc2F)SC1=S [BG230] | – | 23 µM | – | 17 µM | – | –
O=C(O)CCN1C(=O)/C(=C/c2ccccc2F)SC1=S [BG-329] | – | ≥ 100 µM | – | ≥ 100 µM | – | –
CCc1ccc(/C=C2\SC(=S)N(CCC(=O)Nc3ccc(C(=O)O)cc3)C2=O)cc1 [BG273] | – | – | – | 4 µM | – | –
O=C(O)CN1C(=O)C(=Cc2cc(Cl)cc(Cl)c2O)SC1=S [BG225] | – | ≥ 100 µM | – | ≥ 100 µM | – | –
COc1cc(C=C2SC(=S)NC2=O)ccc1OS(=O)(=O)c1ccccc1[N+](=O)[O-] [BG141] | 24 µM | 2 µM | 27 µM | – | – | –
O=C(O)c1ccccc1/C=C1\SC(=S)N(c2cccc(C(F)(F)F)c2)C1=O [BG129] | – | 19 µM | 47 µM | 11 µM | – | –
CC(C)(C)c1ccc(CC2SC(=S)N(CCC(=O)O)C2=O)cc1 (racemic) [BG296] | 167 µM | – | 105 µM | 10 µM | – | –
O=C(O)CCN1C(=O)/C(=C/c2ccc(-c3ccc(Cl)c(Cl)c3)o2)SC1=S [BG281] | – | – | – | 2 µM | – | –
CC(C)(C)c1ccc(/C=C2\SC(=S)N(CCC(=O)O)C2=O)cc1 [BG184] | 46 µM | – | 61 µM | – | – | –
O=C(O)CCN1C(=O)C(=Cc2ccc(-c3ccc(Br)cc3)o2)SC1=S [BG286] | – | – | – | ≥ 100 µM | – | –
CC(C)(C)c1ccc(C=C2SC(=S)N(CCC(=O)NS(C)(=O)=O)C2=O)cc1 [BG297] | 78 µM | – | 86 µM | 3 µM | – | –
O=C(O)CCN1C(=O)/C(=C/c2ccc(-c3cccc(Cl)c3)o2)SC1=S [BG188] | 51 µM | – | 51 µM | – | – | –
O=C1NC(=O)C(=Cc2ccccc2[N+](=O)[O-])S1 [BG146] | – | 66 µM | – | 55 µM | – | –
COc1ccc(N2C(=O)/C(=C/c3cc([N+](=O)[O-])cc(OC)c3O)SC2=S)cc1 [BG140] | 13 µM | 2 µM | 23 µM | – | – | –
COc1cccc(/C=C2\SC(=S)N(CC(=O)O)C2=O)c1OC [BG311] | – | 34 µM | 100 µM | – | – | –
O=C1C(=Cc2cccc(Br)c2)SC(=S)N1CN1CCCCC1 [BG21] | – | 27 µM | – | 42 µM | – | –
